# Test results taken from PubChem BioAssay (NCI).
#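 1) Cells in 96-well plates. 2) Compound, 48 h, 5 concentrations. 3) Linear interpolation between surrounding doses. 4) Unreached endpoint = highest concentration. GI50: concentration for 50% inhibition of growth. TGI: total growth inhibition.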
# Experiments:
# Test in all cases: DTP human tumour cell line panel, 48 h
# SF-268 CNS = tested on: SF-268 CNS
# SNB-19 CNS = tested on: SNB-19 CNS
# HOP-62 NSCLC = tested on: HOP-62 NSCLC
# HOP-92 NSCLC = tested on: HOP-92 NSCLC
# MDA-MB-231 breast = tested on: MDA-MB-231 breast
# LOX IMVI melanoma = tested on: LOX IMVI melanoma
# A498 renal = tested on: A498 renal
# HL-60(TB) leukemia = tested on: HL-60(TB) leukemia
# TK-10 renal = tested on: TK-10 renal
# NCI-H522 lung = tested on: NCI-H522 lung
# BT-549 breast = tested on: BT-549 breast
# MOLT-4 leukemia = tested on: MOLT-4 leukemia
# K-562 leukemia = tested on: K-562 leukemia
# 786-0 renal = tested on: 786-0 renal
# EKVX NSCLC = tested on: EKVX NSCLC
# HCT-116 colon = tested on: HCT-116 colon
# SK-MEL-5 melanoma = tested on: SK-MEL-5 melanoma
# OVCAR-4 ovarian = tested on: OVCAR-4 ovarian
# SW-620 colon = tested on: SW-620 colon
# CAKI-1 renal = tested on: CAKI-1 renal
# U251 CNS = tested on: U251 CNS
# MALME-3M melanoma = tested on: MALME-3M melanoma
# CCRF-CEM leukemia = tested on: CCRF-CEM leukemia
# DU-145 prostate = tested on: DU-145 prostate
# IGROV1 ovarian = tested on: IGROV1 ovarian
# SN12C renal = tested on: SN12C renal
# PC-3 prostate = tested on: PC-3 prostate
# OVCAR-5 ovarian = tested on: OVCAR-5 ovarian
# SNB-75 CNS = tested on: SNB-75 CNS
smiles,measurement,setting,value
C=CCSSC1N=CNc2nc[nH]c21 (stereo not drawn),GI50,SF-268 CNS,5.66 µM
same,TGI,SF-268 CNS,> 46.9 µM
same,GI50,SNB-19 CNS,> 71.6 µM
same,TGI,SNB-19 CNS,> 100 µM
same,GI50,HOP-62 NSCLC,1.54 µM
same,TGI,HOP-62 NSCLC,> 70.4 µM
same,GI50,HOP-92 NSCLC,0.376 µM
same,TGI,HOP-92 NSCLC,17 µM
same,GI50,MDA-MB-231 breast,4.84 µM
same,TGI,MDA-MB-231 breast,36.2 µM
same,GI50,LOX IMVI melanoma,0.374 µM
same,TGI,LOX IMVI melanoma,14.6 µM
same,GI50,A498 renal,67.2 µM
same,TGI,A498 renal,> 100 µM
same,GI50,HL-60(TB) leukemia,2.4 µM
same,TGI,HL-60(TB) leukemia,> 26.2 µM
same,GI50,TK-10 renal,0.708 µM
same,TGI,TK-10 renal,23.8 µM
same,GI50,NCI-H522 lung,4.34 µM
same,TGI,NCI-H522 lung,48.3 µM
same,GI50,BT-549 breast,8.78 µM
same,TGI,BT-549 breast,> 76.4 µM
same,GI50,MOLT-4 leukemia,2.15 µM
same,TGI,MOLT-4 leukemia,> 24.1 µM
same,GI50,K-562 leukemia,0.343 µM
same,TGI,K-562 leukemia,> 26 µM
same,GI50,786-0 renal,1.75 µM
same,TGI,786-0 renal,> 36.3 µM
same,GI50,EKVX NSCLC,49.4 µM
same,TGI,EKVX NSCLC,> 100 µM
same,GI50,HCT-116 colon,2.77 µM
same,TGI,HCT-116 colon,15.8 µM
same,GI50,SK-MEL-5 melanoma,5.31 µM
same,TGI,SK-MEL-5 melanoma,39.5 µM
same,GI50,OVCAR-4 ovarian,0.446 µM
same,TGI,OVCAR-4 ovarian,5.43 µM
same,GI50,SW-620 colon,3.71 µM
same,TGI,SW-620 colon,14.9 µM
same,GI50,CAKI-1 renal,1.97 µM
same,TGI,CAKI-1 renal,34.5 µM
same,GI50,U251 CNS,15.9 µM
same,TGI,U251 CNS,> 54.4 µM
same,GI50,MALME-3M melanoma,3.61 µM
same,TGI,MALME-3M melanoma,> 42.2 µM
same,GI50,CCRF-CEM leukemia,0.871 µM
same,TGI,CCRF-CEM leukemia,> 28.1 µM
same,GI50,DU-145 prostate,0.837 µM
same,TGI,DU-145 prostate,> 47.5 µM
same,GI50,IGROV1 ovarian,2.12 µM
same,TGI,IGROV1 ovarian,11.2 µM
same,GI50,SN12C renal,10.4 µM
same,TGI,SN12C renal,> 67.4 µM
same,GI50,PC-3 prostate,5.56 µM
same,TGI,PC-3 prostate,28.7 µM
same,GI50,OVCAR-5 ovarian,7.53 µM
same,TGI,OVCAR-5 ovarian,> 50.6 µM
same,GI50,SNB-75 CNS,3.18 µM
same,TGI,SNB-75 CNS,> 90.9 µM
